Measurements published in patent US20240082203A1, “PHARMACEUTICAL COMPOSITION FOR INHALATION” (SHANGHAI HUILUN BIOLOGICAL TECHNOLOGY CO., LTD., priority 2020, published 2024).

Experiments:
physchem = assay type: physicochemical; conditions: water
Method: The solubility of sivelestat sodium in water is less than 0.4 mg/mL, which cannot meet the administration requirements as an injection or inhalation preparation. Besides, sivelestat sodium is prone to hydrolysis in aqueous solution, generating the impurity with the following structure (hereinafter referred to as “impurity A”).

[1] = lyophilized preparation of Document 5 (anhydrous sodium carbonate, sodium chloride) kept at 60° C. for two weeks, per Document 4; cited from earlier work

CC(C)(C)C(=O)Oc1ccc(S(=O)(=O)Nc2ccccc2C(=O)NCC(=O)O)cc1 [sivelestat sodium, N-[2-[[[4-(2,2-dimethyl-1-oxopropoxy)phenyl]sulfonyl]amino]benzoyl]-(S)-glycine]
solubility (physchem): < 400 µg/mL
residual rate of sivelestat sodium [1]: 91.4%
